Test results from the supplement of paper PMC10307832.

Tests used:
Experiment in all cases: relative viability (nuclei count vs DMSO), 5 days (fraction); higher = more cells survive
Axitinib + Lapatinib = compound: CNC(=O)c1ccccc1Sc1ccc2c(/C=C/c3ccccn3)n[nH]c2c1 [Axitinib] + CS(=O)(=O)CCNCc1ccc(-c2ccc3ncnc(Nc4ccc(OCc5cccc(F)c5)c(Cl)c4)c3c2)o1 [Lapatinib] (partner 2 µM)
Procedure, shortened: (§1)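 Values are medians from duplicate plates. Each reflects relative viability, defined as the nuclei count of treated wells over that of vehicle wells. Lung cancer cell lines in 1536-well plates were pin-tool dosed one day after seeding with one drug alone or with a fixed anchor-drug dose plus five library-drug doses (not always all listed) in √10 steps, then fixed, stained and imaged at 4× after 5 days.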

Axitinib + Crizotinib = compound: CNC(=O)c1ccccc1Sc1ccc2c(/C=C/c3ccccn3)n[nH]c2c1 [Axitinib] + C[C@@H](Oc1cc(-c2cnn(C3CCNCC3)c2)cnc1N)c1c(Cl)ccc(F)c1Cl [Crizotinib] (partner 1 µM)
Procedure, shortened: as §1

Bemcentinib + Dasatinib = compound: Nc1nc(Nc2ccc3c(c2)CC[C@@H](N2CCCC2)CC3)nn1-c1cc2c(nn1)-c1ccccc1CCC2 [Bemcentinib] + Cc1nc(Nc2ncc(C(=O)Nc3c(C)cccc3Cl)s2)cc(N2CCN(CCO)CC2)n1 [Dasatinib] (partner 0.075 µM)
Procedure, shortened: as §1

Row | Cell Line | relative viability (Axitinib + Lapatinib; first compound 0.005 µM) | relative viability (Axitinib + Lapatinib; first compound 0.01581 µM) | relative viability (Axitinib + Lapatinib; first compound 0.05 µM) | relative viability (Axitinib + Lapatinib; first compound 0.1581 µM) | relative viability (Axitinib + Lapatinib; first compound 0.5 µM) | relative viability (Axitinib + Crizotinib; first compound 0.005 µM) | relative viability (Axitinib + Crizotinib; first compound 0.01581 µM) | relative viability (Axitinib + Crizotinib; first compound 0.05 µM) | relative viability (Axitinib + Crizotinib; first compound 0.1581 µM) | relative viability (Axitinib + Crizotinib; first compound 0.5 µM) | relative viability (Bemcentinib + Dasatinib; first compound 0.04 µM) | relative viability (Bemcentinib + Dasatinib; first compound 0.1265 µM) | relative viability (Bemcentinib + Dasatinib; first compound 0.4 µM) | relative viability (Bemcentinib + Dasatinib; first compound 1.265 µM) | relative viability (Bemcentinib + Dasatinib; first compound 4 µM)
1 | NCI-H2087 | 1 | 1.26 | 0.947 | 0.864 | 1.2 | 0.986 | 0.912 | 0.914 | 0.767 | 0.825 | 0.797 | 1.02 | 0.949 | 0.901 | 0.929
2 | RERF-LC-KJ | 0.865 | 0.829 | 0.824 | 0.809 | 0.932 | 0.801 | 0.856 | 0.862 | 0.771 | 0.823 | 0.847 | 0.923 | 1.02 | 0.964 | 0.85
3 | NCI-H1437 | 0.851 | 0.743 | 0.91 | 0.733 | 0.926 | 1.07 | 0.927 | 0.863 | 0.934 | 0.93 | 0.365 | 0.421 | 0.416 | 0.438 | 0.38
4 | NCI-H1651 | 0.89 | 0.706 | 0.929 | 0.713 | 0.942 | 0.904 | 0.858 | 0.707 | 0.842 | 0.861 | 0.393 | 0.381 | 0.484 | 0.41 | 0.498
5 | PC-14 | 0.294 | 0.288 | 0.402 | 0.278 | 0.332 | 0.954 | 0.959 | 0.849 | 0.937 | 0.984 | 0.236 | 0.259 | 0.249 | 0.224 | 0.236
6 | NCI-H1792 | 0.921 | 0.834 | 1.01 | 0.876 | 0.653 | 1.02 | 0.988 | 0.987 | 0.962 | 0.955 | 0.859 | 0.956 | 1.17 | 0.91 | 0.873
7 | NCI-H1666 | 0.767 | 0.741 | 0.608 | 0.62 | 0.946 | 1.29 | 0.97 | 1.12 | 0.931 | 1.14 | 0.755 | 0.781 | 0.806 | 0.773 | 0.781
8 | NCI-H661 | 0.608 | 0.522 | 0.359 | 0.481 | 0.534 | 0.976 | 1.03 | 0.995 | 1.02 | 1.08 | 0.77 | 0.877 | 0.924 | 0.832 | 0.913
9 | LK-2 | 0.916 |  | 0.776 | 0.745 | 0.625 | 0.235 | 0.264 | 0.252 | 0.219 | 0.216 | 0.248 | 0.246 | 0.31 | 0.27 | 0.349
10 | PC-3 [JPC-3] | 0.483 |  | 0.453 | 0.445 | 0.447 | 1.04 |  | 0.943 | 0.95 | 1.11 | 1.04 | 0.589 | 1.19 | 1.01 | 1.08
11 | LC-2-ad | 0.935 | 0.99 | 1.06 | 0.985 | 1.03 | 0.404 | 0.483 | 0.496 | 0.424 | 0.597 | 0.308 | 0.597 | 0.659 | 0.669 | 0.557
12 | NCI-H460 | 1.15 | 0.999 | 0.809 | 0.953 | 1.35 | 1.05 | 0.876 | 0.915 | 0.816 | 1.13 | 0.452 | 0.534 | 0.562 | 0.535 | 0.551
13 | NCI-H727 | 1.05 | 0.952 | 0.71 | 0.867 | 0.953 | 0.823 | 0.693 | 0.872 | 0.793 | 0.985 | 0.394 | 0.4 | 0.319 | 0.337 | 0.441
14 | NCI-H838 | 1.29 | 0.853 | 1.11 | 1.01 | 1.03 | 0.852 | 0.945 | 0.874 | 0.886 | 0.953 | 0.221 | 0.305 | 0.309 | 0.254 | 0.294
15 | NCI-H1755 | 1.06 | 0.998 | 1.06 | 1.04 | 0.99 | 0.955 | 0.891 | 0.872 | 0.863 | 0.921 | 0.379 | 0.511 | 0.397 | 0.438 | 0.41
16 | EMC-BAC-2 | 0.917 | 0.869 | 0.947 | 0.915 | 0.803 | 0.819 | 0.859 | 0.766 | 0.754 | 0.719 | 0.349 | 0.323 | 0.342 | 0.29 | 0.336
17 | EKVX | 0.178 | 0.226 | 0.222 | 0.216 | 0.183 | 1.03 | 0.896 | 0.785 | 0.904 | 0.958 | 0.556 | 0.528 | 0.592 | 0.628 | 0.588
18 | NCI-H647 | 1.07 | 1.09 | 1.29 | 1.09 | 1.41 | 1.12 | 1.01 | 1.04 | 1.09 | 1.23 | 0.169 | 0.213 | 0.211 | 0.186 | 0.136
19 | NCI-H358 | 0.46 | 0.401 | 0.437 | 0.374 | 0.469 | 0.401 | 0.636 | 0.625 | 0.549 | 0.596 | 0.153 | 0.146 | 0.148 | 0.163 | 0.171

Row | Cell Line | relative viability (Axitinib + Lapatinib; first compound 0.005 µM) | relative viability (Axitinib + Lapatinib; first compound 0.01581 µM) | relative viability (Axitinib + Lapatinib; first compound 0.05 µM) | relative viability (Axitinib + Lapatinib; first compound 0.1581 µM) | relative viability (Axitinib + Lapatinib; first compound 0.5 µM) | relative viability (Axitinib + Crizotinib; first compound 0.005 µM) | relative viability (Axitinib + Crizotinib; first compound 0.01581 µM) | relative viability (Axitinib + Crizotinib; first compound 0.05 µM) | relative viability (Axitinib + Crizotinib; first compound 0.1581 µM) | relative viability (Axitinib + Crizotinib; first compound 0.5 µM) | relative viability (Bemcentinib + Dasatinib; first compound 0.04 µM) | relative viability (Bemcentinib + Dasatinib; first compound 0.1265 µM) | relative viability (Bemcentinib + Dasatinib; first compound 0.4 µM) | relative viability (Bemcentinib + Dasatinib; first compound 1.265 µM) | relative viability (Bemcentinib + Dasatinib; first compound 4 µM)
20 | LU99A | 0.879 | 0.987 | 0.885 | 1.04 | 1.04 | 0.552 | 0.541 | 0.628 | 0.525 | 0.648 | 0.489 | 0.568 | 0.519 | 0.661 | 0.573
21 | NCI-H1563 | 0.956 | 0.85 | 0.931 | 0.863 | 0.694 | 0.957 | 0.791 | 0.877 | 0.833 | 0.907 | 0.403 | 0.429 | 0.448 | 0.413 | 0.444
22 | NCI-H1734 | 1.03 | 1.07 | 1.15 | 1.02 | 0.954 | 0.683 | 0.765 | 0.679 | 0.758 | 0.868 | 0.46 | 0.48 | 0.512 | 0.41 | 0.448
23 | HARA | 0.63 | 0.593 | 0.718 | 0.621 | 0.602 | 1.07 | 1.07 | 1.1 | 0.978 | 1.14 | 0.124 | 0.27 | 0.253 | 0.221 | 0.21
24 | NCI-H2228 | 1.28 | 0.959 | 1.09 | 1.29 | 1.39 | 0.443 | 0.473 | 0.384 | 0.612 | 0.438 | 0.14 | 0.566 | 0.532 | 0.526 | 0.538
25 | HCC-827 | 0.209 | 0.169 | 0.138 | 0.186 | 0.212 | 0.882 | 0.905 | 0.914 | 0.886 | 0.943 | 0.305 | 0.385 | 0.273 | 0.4 | 0.3
26 | EPLC-272H | 0.97 | 0.889 | 0.906 | 0.975 | 0.94 | 0.893 | 0.989 | 0.76 | 0.986 | 0.937 | 0.285 | 0.389 | 0.332 | 0.393 | 0.364
27 | SW 1573 | 1.15 | 1.09 | 1.29 | 1.06 | 1.03 | 0.745 | 0.844 | 0.905 | 0.917 | 0.913 | 0.411 | 0.52 | 0.611 | 0.477 | 0.636
28 | LXF-289 | 0.899 | 0.831 | 0.921 | 0.869 | 0.888 | 0.872 | 0.799 | 0.781 | 0.781 | 0.841 | 0.206 | 0.178 | 0.212 | 0.241 | 0.187
29 | SK-LU-1 | 0.976 | 0.951 | 0.942 | 0.835 | 1.39 | 0.999 | 1.12 | 1.11 | 1.02 | 1.1 | 0.181 | 0.201 | 0.197 | 0.191 | 0.155
30 | NCI-H23 | 1.22 | 1.1 | 1.15 | 1.01 | 1.28 | 0.532 | 0.529 | 0.619 | 0.436 | 0.656 | 0.476 | 0.884 | 0.985 | 0.632 | 0.828
31 | CAL-12T | 0.712 | 0.693 | 0.609 | 0.645 | 0.624 | 0.675 | 0.75 | 0.529 | 0.834 | 0.537 | 0.366 | 0.356 | 0.398 | 0.45 | 0.555
32 | A-427 | 1.1 | 1.01 | 1.08 | 1.06 | 1.06 | 1 | 0.958 | 0.82 | 0.898 | 0.901 | 0.719 | 0.737 | 0.68 | 0.707 | 0.691
33 | NCI-H2009 | 0.92 | 1.05 | 0.9 | 1.02 | 0.9 | 1.17 | 1.14 | 1.01 | 1.08 | 1.16 | 0.24 | 0.303 | 0.276 | 0.272 | 0.247
34 | UMC-11 | 0.945 | 1.06 | 0.959 | 0.916 | 0.943 | 0.556 | 0.59 | 0.59 | 0.584 | 0.482 | 0.462 | 0.563 | 0.559 | 0.466 | 0.476
35 | NCI-H596 | 1.11 | 0.935 | 1.03 | 0.887 | 1.14 | 1.03 | 1.06 | 1.06 | 0.993 | 0.495 | 0.454 | 0.604 | 0.575 | 0.593 | 0.627
36 | LOU-NH91 | 0.839 | 0.789 | 0.836 | 0.711 | 0.705 | 0.765 | 0.641 | 0.773 | 0.697 | 0.78 | 0.508 | 0.568 | 0.59 | 0.335 | 0.61
37 | HOP-62 | 0.891 | 0.883 | 1.01 | 0.863 | 1.06 | 0.941 | 1.1 | 0.93 | 0.981 | 0.929 | 0.639 | 0.656 | 0.768 | 0.552 | 0.718
38 | NCI-H1993 | 0.952 | 0.971 | 0.841 | 0.735 | 0.731 | 1.01 | 0.983 | 0.873 | 0.96 | 0.858 | 0.571 | 0.563 | 0.625 | 0.552 | 0.577
